# Patent publication US20240317721A1, “PYRAZOLYL DERIVATIVES AS INHIBITORS OF THE KRAS MUTANT PROTEIN” (NOVARTIS AG, priority 2021, published 2024)
# Molecular target: KRasG12C (M1-K169, biotinylated on the N-terminus) (Homo sapiens (Human), UniProt P01116, G12C)
# Assay: Covalent competition assay: scintillation proximity assay (SPA) quantifying covalent modification of KRASG12C
# Type: binding
# Details: competition with radiolabeled covalent probe (Compound B/Compound A), 2 hours incubation, 10 nM KRasG12C
# Summary of the method: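 Scintillation proximity readout after streptavidin bead capture (30 min) of biotinylated KRasG12C(M1-K169):GDP, 10 nM final, which was covalently labelled over 2 h by 25 nM radio-probe plus 475 nM cold probe unless blocked by compound.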
row,IC50 [nM],Compound
1,4000,"C=CC(=O)N1CC2(CC(n3nc(N4CC[C@@H](CN5CCOCC5)CC4(C)C)c(-c4c(C)c(Cl)cc5[nH]ncc45)c3C)C2)C1 (single isomer, unassigned) [Example 233a]"
2,20,"C=CC(=O)N1CC2(CC(n3nc(N4CC[C@@H](CN5CCOCC5)CC4(C)C)c(-c4c(C)c(Cl)cc5[nH]ncc45)c3C)C2)C1 (single isomer, unassigned) [Example 233b]"
3,1000,"C=CC(=O)N1CC2(CC(n3nc(N4CC[C@@H](CN5CC6(CCCO6)C5)CC4(C)C)c(-c4c(Cl)c(Cl)cc5[nH]ncc45)c3C)C2)C1 (single isomer, unassigned) [Example 234a]"
4,9,"C=CC(=O)N1CC2(CC(n3nc(N4CC[C@@H](CN5CC6(CCCO6)C5)CC4(C)C)c(-c4c(Cl)c(Cl)cc5[nH]ncc45)c3C)C2)C1 (single isomer, unassigned) [Example 234b]"
5,932,"C=CC(=O)N1CC2(CC(n3nc(N4CCC(CN5CCS(=O)(=O)CC5)CC4(C)C)c(-c4c(Cl)c(Cl)cc5[nH]ncc45)c3C)C2)C1 (single isomer, unassigned) [Example 235a, 1-(6-(4-(5,6-dichloro-1H-indazol-4-yl)-3-(4-((1,1-dioxidothiomorpholino)methyl)-2,2-dimethylpiperidin-1-yl)-5-methyl-1H-pyrazol-1-yl)-2-azaspiro[3.3]heptan-2-yl)prop-2-en-1-one]"
6,10,"C=CC(=O)N1CC2(CC(n3nc(N4CCC(CN5CCS(=O)(=O)CC5)CC4(C)C)c(-c4c(Cl)c(Cl)cc5[nH]ncc45)c3C)C2)C1 (single isomer, unassigned) [Example 235b, 1-(6-(4-(5,6-dichloro-1H-indazol-4-yl)-3-(4-((1,1-dioxidothiomorpholino)methyl)-2,2-dimethylpiperidin-1-yl)-5-methyl-1H-pyrazol-1-yl)-2-azaspiro[3.3]heptan-2-yl)prop-2-en-1-one]"
7,168,"C=CC(=O)N1CC2(CC(n3nc(N4CCC(CN5CCS(=O)(=O)CC5)CC4(C)C)c(-c4c(Cl)c(Cl)cc5[nH]ncc45)c3C)C2)C1 (single isomer, unassigned) [Example 236a, 1-(6-(4-(5,6-dichloro-1H-indazol-4-yl)-3-(4-((1,1-dioxidothiomorpholino)methyl)-2,2-dimethylpiperidin-1-yl)-5-methyl-1H-pyrazol-1-yl)-2-azaspiro[3.3]heptan-2-yl)prop-2-en-1-one]"
8,2500,"C=CC(=O)N1CC2(CC(n3nc(N4CCC(CN5CCS(=O)(=O)CC5)CC4(C)C)c(-c4c(Cl)c(Cl)cc5[nH]ncc45)c3C)C2)C1 (single isomer, unassigned) [Example 236b, 1-(6-(4-(5,6-dichloro-1H-indazol-4-yl)-3-(4-((1,1-dioxidothiomorpholino)methyl)-2,2-dimethylpiperidin-1-yl)-5-methyl-1H-pyrazol-1-yl)-2-azaspiro[3.3]heptan-2-yl)prop-2-en-1-one]"
9,> 5000,"C=CC(=O)N1CC2(CC(n3nc(N4CCC(O)(CN5CCOCC5)CC4(C)C)c(-c4c(Cl)c(Cl)cc5[nH]ncc45)c3C)C2)C1 (single isomer, unassigned) [Example 237a, 1-(6-(4-(5,6-dichloro-1H-indazol-4-yl)-3-(4-hydroxy-2,2-dimethyl-4-(morpholinomethyl)piperidin-1-yl)-5-methyl-1H-pyrazol-1-yl)-2-azaspiro[3.3]heptan-2-yl)prop-2-en-1-one]"
10,31,"C=CC(=O)N1CC2(CC(n3nc(N4CCC(O)(CN5CCOCC5)CC4(C)C)c(-c4c(Cl)c(Cl)cc5[nH]ncc45)c3C)C2)C1 (single isomer, unassigned) [Example 237b, 1-(6-(4-(5,6-dichloro-1H-indazol-4-yl)-3-(4-hydroxy-2,2-dimethyl-4-(morpholinomethyl)piperidin-1-yl)-5-methyl-1H-pyrazol-1-yl)-2-azaspiro[3.3]heptan-2-yl)prop-2-en-1-one]"
11,36,"C=CC(=O)N1CC2(CC(n3nc(N4CCC(O)(CN5CCOCC5)CC4(C)C)c(-c4c(Cl)c(Cl)cc5[nH]ncc45)c3C)C2)C1 (single isomer, unassigned) [Example 238a, 1-(6-(4-(5,6-dichloro-1H-indazol-4-yl)-3-(4-hydroxy-2,2-dimethyl-4-(morpholinomethyl)piperidin-1-yl)-5-methyl-1H-pyrazol-1-yl)-2-azaspiro[3.3]heptan-2-yl)prop-2-en-1-one]"
12,503,"C=CC(=O)N1CC2(CC(n3nc(N4CCC(O)(CN5CCOCC5)CC4(C)C)c(-c4c(Cl)c(Cl)cc5[nH]ncc45)c3C)C2)C1 (single isomer, unassigned) [Example 238b, 1-(6-(4-(5,6-dichloro-1H-indazol-4-yl)-3-(4-hydroxy-2,2-dimethyl-4-(morpholinomethyl)piperidin-1-yl)-5-methyl-1H-pyrazol-1-yl)-2-azaspiro[3.3]heptan-2-yl)prop-2-en-1-one]"
13,1600,"C=CC(=O)N1CC2(CC(n3nc(N4CCC(CN5CCN(C)C(=O)C5)CC4(C)C)c(-c4c(Cl)c(Cl)cc5[nH]ncc45)c3C)C2)C1 (single isomer, unassigned) [Example 239a, 4-((1-(1-(2-acryloyl-2-azaspiro[3.3]heptan-6-yl)-4-(5,6-dichloro-1H-indazol-4-yl)-5-methyl-1H-pyrazol-3-yl)-2,2-dimethylpiperidin-4-yl)methyl)-1-methylpiperazin-2-one]"
14,9,"C=CC(=O)N1CC2(CC(n3nc(N4CCC(CN5CCN(C)C(=O)C5)CC4(C)C)c(-c4c(Cl)c(Cl)cc5[nH]ncc45)c3C)C2)C1 (single isomer, unassigned) [Example 239b, 4-((1-(1-(2-acryloyl-2-azaspiro[3.3]heptan-6-yl)-4-(5,6-dichloro-1H-indazol-4-yl)-5-methyl-1H-pyrazol-3-yl)-2,2-dimethylpiperidin-4-yl)methyl)-1-methylpiperazin-2-one]"
15,390,"C=CC(=O)N1CC2(CC(n3nc(N4CCC(CN5CCN(C)CC5=O)CC4(C)C)c(-c4c(Cl)c(Cl)cc5[nH]ncc45)c3C)C2)C1 (single isomer, unassigned) [Example 240a, 1-((1-(1-(2-acryloyl-2-azaspiro[3.3]heptan-6-yl)-4-(5,6-dichloro-1H-indazol-4-yl)-5-methyl-1H-pyrazol-3-yl)-2,2-dimethylpiperidin-4-yl)methyl)-4-methylpiperazin-2-one]"
16,8,"C=CC(=O)N1CC2(CC(n3nc(N4CCC(CN5CCN(C)CC5=O)CC4(C)C)c(-c4c(Cl)c(Cl)cc5[nH]ncc45)c3C)C2)C1 (single isomer, unassigned) [Example 240b, 1-((1-(1-(2-acryloyl-2-azaspiro[3.3]heptan-6-yl)-4-(5,6-dichloro-1H-indazol-4-yl)-5-methyl-1H-pyrazol-3-yl)-2,2-dimethylpiperidin-4-yl)methyl)-4-methylpiperazin-2-one]"
17,8,"C=CC(=O)N1CC2(CC(n3nc(N4CC[C@@H](CN5CCOCC5)CC4(C)C)c(-c4c(Cl)c(Cl)cc5[nH]nc(N)c45)c3C)C2)C1 (single isomer, unassigned) [Example 241a]"
18,536,"C=CC(=O)N1CC2(CC(n3nc(N4CC[C@@H](CN5CCOCC5)CC4(C)C)c(-c4c(Cl)c(Cl)cc5[nH]nc(N)c45)c3C)C2)C1 (single isomer, unassigned) [Example 241b]"
19,13,"C=CC(=O)N1CC2(CC(n3nc(N4CC[C@@H](CN5CCOCC5)CC4(C)C)c(-c4c(Cl)c(C)cc5[nH]nc(N)c45)c3C)C2)C1 (single isomer, unassigned) [Example 242a]"
20,1400,"C=CC(=O)N1CC2(CC(n3nc(N4CC[C@@H](CN5CCOCC5)CC4(C)C)c(-c4c(Cl)c(C)cc5[nH]nc(N)c45)c3C)C2)C1 (single isomer, unassigned) [Example 242b]"
21,3800,"C=CC(=O)N1CC2(CC(n3nc(N4CC[C@@H](CN5CCN(C6COC6)CC5)CC4(C)C)c(-c4c(Cl)c(Cl)cc5[nH]ncc45)c3C)C2)C1 (single isomer, unassigned) [Example 243a]"
22,6,"C=CC(=O)N1CC2(CC(n3nc(N4CC[C@@H](CN5CCN(C6COC6)CC5)CC4(C)C)c(-c4c(Cl)c(Cl)cc5[nH]ncc45)c3C)C2)C1 (single isomer, unassigned) [Example 243b]"
23,1400,"C=CC(=O)N1CC2(CC(n3nc(N4CC[C@@H](CN5CCN(C6COC6)CC5)CC4(C)C)c(-c4c(C)c(Cl)cc5[nH]ncc45)c3C)C2)C1 (single isomer, unassigned) [Example 244a]"
24,6,"C=CC(=O)N1CC2(CC(n3nc(N4CC[C@@H](CN5CCN(C6COC6)CC5)CC4(C)C)c(-c4c(C)c(Cl)cc5[nH]ncc45)c3C)C2)C1 (single isomer, unassigned) [Example 244b]"
25,1800,"C=CC(=O)N1CC2(CC(n3nc(N4CC[C@@H](CN5CCN(C6COC6)CC5)CC4(C)C)c(-c4c(Cl)c(F)cc5[nH]ncc45)c3C)C2)C1 (single isomer, unassigned) [Example 245a]"
26,14,"C=CC(=O)N1CC2(CC(n3nc(N4CC[C@@H](CN5CCN(C6COC6)CC5)CC4(C)C)c(-c4c(Cl)c(F)cc5[nH]ncc45)c3C)C2)C1 (single isomer, unassigned) [Example 245b]"
27,> 5000,"C=CC(=O)N1CC2(CC(n3nc(N4CC[C@@H](CN5CCN(C6COC6)CC5)CC4(C)C)c(-c4c(Cl)c(C)cc5[nH]ncc45)c3C)C2)C1 (single isomer, unassigned) [Example 246a]"
28,15,"C=CC(=O)N1CC2(CC(n3nc(N4CC[C@@H](CN5CCN(C6COC6)CC5)CC4(C)C)c(-c4c(Cl)c(C)cc5[nH]ncc45)c3C)C2)C1 (single isomer, unassigned) [Example 246b]"
29,1400,"C=CC(=O)N1CC2(CC(n3nc(N4CC[C@@H](CN5CCO[C@@H](CO)C5)CC4(C)C)c(-c4c(Cl)c(Cl)cc5[nH]ncc45)c3C)C2)C1 (single isomer, unassigned) [Example 247a]"
30,9,"C=CC(=O)N1CC2(CC(n3nc(N4CC[C@@H](CN5CCO[C@@H](CO)C5)CC4(C)C)c(-c4c(Cl)c(Cl)cc5[nH]ncc45)c3C)C2)C1 (single isomer, unassigned) [Example 247b]"
